{"source": "patent US12162836B2", "about": "“N-acyl-{4-[(4-aryl-phenyl)sulfonylmethyl]piperidine} compounds and their therapeutic use” (Modern Biosciences Limited, priority 2019, dated 2024)", "key": {"[1]": {"tested_on": "collagen-induced arthritis in DBA/1j mice", "test": "Mouse Collagen-Induced Arthritis", "format": "in vivo", "conditions": "10 mg/kg/day, once daily for 14 days, oral gavage; arthritic index vs control", "experimental": "Seven- to eight-week-old male DBA/1j mice were used for all procedures. Animals were housed in groups of 10, and were maintained at 21° C.±2° C. on a 12-hour light/dark cycle with food and water ad libitum. Complete Freund's adjuvant (CFA) was prepared by emulsifying bovine type II collagen at 4 mg/mL with a 4 mg/mL suspension of Mycobacterium tuberculosis H37Ra in Incomplete Freund's Adjuvant (IFA) (0.85 mL paraffin oil and 0.15 mL mannide monooleate) in a 1:1 (v/v) ratio. All mice were immunised subcutaneously with 200 μg of bovine type II collagen in CFA. 21 days later, all mice were immunised subcutaneously with 100 μg of bovine type II collagen in IFA. The mice started to develop signs and symptoms of arthritis following the ‘booster’ immunisation.\nFor macroscopic assessment of arthritis, the following signs were monitored in each paw of each mouse three times per week and summed to generate the Arthritic Index (A1) (the maximum A1 for one animal is 16): • 0=no visible effects of arthritis. • 1=oedema and/or erythema of 1 digit. • 2=oedema and/or erythema of 2 digits. • 3=oedema and/or erythema of more than 2 digits. • 4=severe arthritis of entire paw and digits.\nAnimals were sorted into treatment groups with a mean arthritic index of 2.5 and then dosed once daily for 14 days with compound: by oral gavage for test compounds, or by subcutaneous injection at a dose of 10 mg/kg for the positive control, etanercept. After completion of the experiment, the mice were sacrificed.\nThe data were analysed by generating an average of the arthritic index across each treatment group. The mean arthritic index was then compared to the arthritic index of control (untreated) animals using the following formula to generate a percentage inhibition of disease."}, "hERG": {"target": "hERG (Homo sapiens (Human), UniProt Q12809)", "sequence (Q12809 whole entry)": "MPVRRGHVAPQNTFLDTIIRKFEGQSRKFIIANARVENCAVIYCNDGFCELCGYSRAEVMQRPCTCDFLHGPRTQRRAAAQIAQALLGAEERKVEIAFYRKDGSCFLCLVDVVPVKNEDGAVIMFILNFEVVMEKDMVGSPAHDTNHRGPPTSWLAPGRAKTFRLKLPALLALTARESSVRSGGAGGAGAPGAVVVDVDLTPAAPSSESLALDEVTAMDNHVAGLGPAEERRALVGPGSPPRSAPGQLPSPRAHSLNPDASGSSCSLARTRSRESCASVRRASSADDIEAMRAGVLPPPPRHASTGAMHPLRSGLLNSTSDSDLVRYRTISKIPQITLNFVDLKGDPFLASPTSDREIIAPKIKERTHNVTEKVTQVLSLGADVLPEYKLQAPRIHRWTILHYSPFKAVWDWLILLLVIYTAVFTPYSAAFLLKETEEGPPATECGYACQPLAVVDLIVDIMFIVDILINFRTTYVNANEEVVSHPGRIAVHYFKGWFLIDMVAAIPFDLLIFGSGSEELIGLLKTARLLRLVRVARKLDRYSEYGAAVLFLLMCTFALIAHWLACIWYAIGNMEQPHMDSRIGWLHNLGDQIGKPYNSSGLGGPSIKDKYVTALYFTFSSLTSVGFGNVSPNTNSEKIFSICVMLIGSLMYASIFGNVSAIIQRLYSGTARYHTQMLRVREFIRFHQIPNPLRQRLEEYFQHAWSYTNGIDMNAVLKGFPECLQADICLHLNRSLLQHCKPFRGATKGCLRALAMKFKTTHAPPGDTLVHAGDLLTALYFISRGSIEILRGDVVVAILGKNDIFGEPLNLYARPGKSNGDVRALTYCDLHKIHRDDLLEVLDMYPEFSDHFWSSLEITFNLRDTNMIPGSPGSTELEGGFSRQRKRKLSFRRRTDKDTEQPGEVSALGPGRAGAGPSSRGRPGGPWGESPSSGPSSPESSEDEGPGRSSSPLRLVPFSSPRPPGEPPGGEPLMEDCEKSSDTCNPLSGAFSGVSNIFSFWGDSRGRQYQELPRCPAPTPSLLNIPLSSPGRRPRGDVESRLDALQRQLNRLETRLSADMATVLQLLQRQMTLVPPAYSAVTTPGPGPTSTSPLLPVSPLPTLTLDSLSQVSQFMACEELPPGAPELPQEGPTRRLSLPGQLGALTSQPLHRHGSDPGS", "test": "hERG Ion Channel binding assay (3H astemizole displacement)", "conditions": "human, membranes of HEK293 cells stably expressing hERG, pH 7.4, probe 3H astemizole (1.5 nM); Tested at 25 μM; displacement of 3H astemizole, hERG-HEK293 membranes", "summary_of_the_method": "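Membranes from stably transfected hERG-HEK293 cells incubated with 1.5 nM ³H-astemizole ± test compound in HEPES buffer pH 7.4 (0.1% BSA, 5 mM KCl, 130 mM NaCl) at 25° C for 60 min. Bound ligand measured by filtration and scintillation counting; reported as % displacement (0% none, 100% complete).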"}, "CYP2C9": {"target": "CYP2C9 (Homo sapiens (Human), UniProt P11712)", "sequence (P11712 whole entry)": "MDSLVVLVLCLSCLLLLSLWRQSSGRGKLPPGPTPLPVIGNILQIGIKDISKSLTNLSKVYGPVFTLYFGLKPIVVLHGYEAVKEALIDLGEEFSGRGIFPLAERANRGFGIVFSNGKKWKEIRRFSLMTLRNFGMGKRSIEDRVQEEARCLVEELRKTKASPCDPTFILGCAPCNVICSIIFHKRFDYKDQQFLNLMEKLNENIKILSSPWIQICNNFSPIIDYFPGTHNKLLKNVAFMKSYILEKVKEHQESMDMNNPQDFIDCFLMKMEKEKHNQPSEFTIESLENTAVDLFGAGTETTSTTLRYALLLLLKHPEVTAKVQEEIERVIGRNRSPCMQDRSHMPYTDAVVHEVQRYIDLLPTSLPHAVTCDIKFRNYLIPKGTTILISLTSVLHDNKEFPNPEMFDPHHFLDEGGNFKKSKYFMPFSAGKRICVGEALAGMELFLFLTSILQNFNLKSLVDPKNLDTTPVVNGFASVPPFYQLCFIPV", "test": "Human Cytochrome P450 Inhibition Assay (Bactosomes)", "format": "in vitro ADME", "conditions": "recombinant Bactosomes, 10 minutes", "experimental": "(§1) The ability of test compounds to inhibit five of the most relevant cytochrome P450 enzymes was measured by determination of the activity of cytochrome P450 enzymes in recombinant cytochrome preparations, called Bactosomes (Cypex Ltd, Dundee, Scotland UK DD2 1 NH), in the presence of a specific probe substrate. Bactosomes are a highly efficient and cost-effective source of recombinant CYP450s which have a higher specific activity of enzyme compared to other sources, such as liver microsomes. […] The following CYP450 isoforms were assayed: CYP1A2, CYP2C9, CYP2C19, CYP2D6 and CYP3A4. The study of CYP450 inhibition potential in Bactosomes is accepted as a valuable model permitting rapid prediction of potential drug-drug interactions in vivo (see, e.g., Weaver et al., 2003).\n(§2) Bactosomes were obtained from a commercial source (Cypex, Scotland, UK). Test compounds were incubated with Bactosomes at 6 concentrations. Samples were incubated for 10 minutes, after which the reaction was stopped and the samples analysed by LC-MS/MS Multiple Reaction Monitoring (MRM) for the presence/amount of substrate probe.\n(§3) CYP450 enzymes (final protein 75 pmol/mL for CYP1A2; 12.5 pmol/mL for CYP2C19; and 25 pmol/mL for CYP2C9, 2D6 and 3A4), 0.1 M phosphate buffer pH 7.4, probe and test compound (final concentration 50, 15.8, 5, 1.58, 0.5 and 0.158 μM; diluted from 10 mM stock solution to give a final DMSO concentration of 1%) were pre-incubated at 37° C. for 5 minutes. The reaction was initiated by the addition of 20 μL of 10 mM NADPH in phosphate buffer. The final incubation volume was 200 μL. The following control inhibitors were used for each CYP450 inhibition assay: CYP1A2: α-naphthoflavone; CYP2C9: sulfaphenazole; CYP2C19: tranylcypromine; CYP2D6: quinidine; CYP3A4: ketoconazole.\n(§4) Each compound was incubated for 10 minutes at 37° C. The reactions were stopped by the addition of methanol (final composition 1:1, aqueous: methanol). The incubation plates were shaken, chilled at […] for 2 hours, and centrifuged at 3500 rpm for 15 minutes at 4° C. to precipitate the protein."}, "CYP1A2": {"target": "CYP1A2 (Homo sapiens (Human), UniProt P05177)", "sequence (P05177 whole entry)": "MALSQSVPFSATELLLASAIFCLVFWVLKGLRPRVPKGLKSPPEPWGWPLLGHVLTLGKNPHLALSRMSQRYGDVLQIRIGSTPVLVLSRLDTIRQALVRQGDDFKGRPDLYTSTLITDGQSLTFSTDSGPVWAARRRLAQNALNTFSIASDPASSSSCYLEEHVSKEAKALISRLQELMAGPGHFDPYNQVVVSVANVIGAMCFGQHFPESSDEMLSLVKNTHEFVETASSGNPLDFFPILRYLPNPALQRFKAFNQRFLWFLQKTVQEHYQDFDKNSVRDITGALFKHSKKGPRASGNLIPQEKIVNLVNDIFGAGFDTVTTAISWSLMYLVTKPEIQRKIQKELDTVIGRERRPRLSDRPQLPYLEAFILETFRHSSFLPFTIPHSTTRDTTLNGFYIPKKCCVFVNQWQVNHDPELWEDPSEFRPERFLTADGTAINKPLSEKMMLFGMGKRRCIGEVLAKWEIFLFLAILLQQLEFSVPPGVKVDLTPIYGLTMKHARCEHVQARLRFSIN", "test": "Human Cytochrome P450 Inhibition Assay (Bactosomes)", "format": "in vitro ADME", "conditions": "recombinant Bactosomes, 10 minutes; read-out: IC50 CYP1A2", "experimental": "as §1, §2, §3, §4"}, "CYP2D6": {"target": "CYP2D6 (Homo sapiens (Human), UniProt P10635)", "sequence (P10635 whole entry)": "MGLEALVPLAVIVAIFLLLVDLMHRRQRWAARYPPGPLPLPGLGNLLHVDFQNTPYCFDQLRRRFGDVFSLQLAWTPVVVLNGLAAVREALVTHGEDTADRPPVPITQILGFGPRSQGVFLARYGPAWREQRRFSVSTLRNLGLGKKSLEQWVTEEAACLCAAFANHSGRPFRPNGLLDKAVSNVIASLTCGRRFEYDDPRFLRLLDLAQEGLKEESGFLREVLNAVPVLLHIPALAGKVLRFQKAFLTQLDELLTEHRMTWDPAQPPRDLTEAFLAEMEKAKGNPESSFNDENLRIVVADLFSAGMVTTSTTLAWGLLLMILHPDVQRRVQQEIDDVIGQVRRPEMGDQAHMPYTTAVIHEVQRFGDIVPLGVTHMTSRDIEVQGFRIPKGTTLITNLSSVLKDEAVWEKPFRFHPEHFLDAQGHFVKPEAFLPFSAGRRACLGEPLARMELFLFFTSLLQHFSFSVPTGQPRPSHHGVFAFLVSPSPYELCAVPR", "test": "Human Cytochrome P450 Inhibition Assay (Bactosomes)", "format": "in vitro ADME", "conditions": "recombinant Bactosomes, 10 minutes", "experimental": "as §1, §2, §3, §4"}, "CYP3A4": {"target": "CYP3A4 (Homo sapiens (Human), UniProt P08684)", "sequence (P08684 whole entry)": "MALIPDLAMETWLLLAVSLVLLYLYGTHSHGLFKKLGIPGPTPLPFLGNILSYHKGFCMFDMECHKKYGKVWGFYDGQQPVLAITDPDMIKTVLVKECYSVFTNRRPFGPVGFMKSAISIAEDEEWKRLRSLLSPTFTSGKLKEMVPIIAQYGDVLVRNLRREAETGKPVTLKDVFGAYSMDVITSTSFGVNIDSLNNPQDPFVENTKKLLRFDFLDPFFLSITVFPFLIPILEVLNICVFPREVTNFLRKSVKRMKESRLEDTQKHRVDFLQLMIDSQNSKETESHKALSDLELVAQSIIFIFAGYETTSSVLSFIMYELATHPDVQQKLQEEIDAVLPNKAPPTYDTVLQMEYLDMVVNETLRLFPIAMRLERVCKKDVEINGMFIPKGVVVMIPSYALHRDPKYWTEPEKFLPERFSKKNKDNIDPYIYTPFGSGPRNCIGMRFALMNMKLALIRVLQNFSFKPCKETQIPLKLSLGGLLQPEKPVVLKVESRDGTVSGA", "test": "Human Cytochrome P450 Inhibition Assay (Bactosomes)", "format": "in vitro ADME", "conditions": "recombinant Bactosomes, 10 minutes", "experimental": "as §1, §2, §3, §4"}, "CYP2C19": {"target": "CYP2C19 (Homo sapiens (Human), UniProt P33261)", "sequence (P33261 whole entry)": "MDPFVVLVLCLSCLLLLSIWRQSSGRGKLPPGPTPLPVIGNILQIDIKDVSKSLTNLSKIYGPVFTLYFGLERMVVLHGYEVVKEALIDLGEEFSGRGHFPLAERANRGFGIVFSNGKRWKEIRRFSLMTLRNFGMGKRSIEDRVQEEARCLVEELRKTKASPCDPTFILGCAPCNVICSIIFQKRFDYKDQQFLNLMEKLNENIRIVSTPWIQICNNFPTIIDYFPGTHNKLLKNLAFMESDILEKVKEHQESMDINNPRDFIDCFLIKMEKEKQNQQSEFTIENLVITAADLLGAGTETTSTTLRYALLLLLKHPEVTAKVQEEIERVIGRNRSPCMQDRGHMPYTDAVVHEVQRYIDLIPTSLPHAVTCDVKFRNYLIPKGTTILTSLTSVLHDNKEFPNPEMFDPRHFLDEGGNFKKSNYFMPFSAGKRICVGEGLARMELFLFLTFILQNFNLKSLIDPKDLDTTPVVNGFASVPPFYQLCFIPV", "test": "Human Cytochrome P450 Inhibition Assay (Bactosomes)", "format": "in vitro ADME", "conditions": "recombinant Bactosomes, 10 minutes", "experimental": "as §1, §2, §3, §4"}}, "data": [{"smiles": "C[C@]1(O)CC[C@H](NS(=O)(=O)c2ccc(-c3ccc(Cl)cc3C#N)cc2)CC1", "note": "[HMC-C-01-A, reference compound]", "values": [{"measurement": "% inhibition of disease", "setting": "[1]", "result": 40, "unit": "%"}, {"measurement": "inhibition at 60 min, 25 µM", "setting": "hERG", "result": 18, "unit": "%"}, {"measurement": "IC50", "setting": "CYP2C9", "result": 21, "unit": "µM"}, {"measurement": "IC50", "setting": "CYP1A2", "result": 25, "unit": "µM"}, {"measurement": "IC50", "setting": "CYP2D6", "result": 16.6, "unit": "µM"}, {"measurement": "IC50", "setting": "CYP3A4", "result": "> 25", "unit": "µM"}, {"measurement": "IC50", "setting": "CYP2C19", "result": "> 25", "unit": "µM"}]}]}
